The values that follow are results of earlier work, collected in US20130164384A1, “METHODS OF TREATING BOWEL DISEASES BY ADMINISTERING A BOWEL CLEANSER AND AN ANTIBIOTIC” (Salix Pharmaceuticals, Ltd., priority 2008, published 2013).

Molecules are shown by their SMILES. Read-outs that look alike come from different tables or passages of the source.

The conditions of the data set: cited from earlier work.

Turning to `CC(=O)Oc1ccc(C(c2ccc(OC(C)=O)cc2)c2ccccn2)cc1` [Bisacodyl], the “Time to produce a bowel movement” value (enemas) is on record as “about 20 minutes” and the “Time to produce a bowel movement” value (suppositories) is given as “about an hour”.
